The text below walks through data of patent US20260001875A1, “AMINOPYRIMIDINYL DERIVATIVES FOR THE TREATMENT OF PARKINSON'S DISEASE” (UNIVERSITY OF DUNDEE, priority 2022, published 2026).

One data set can be described thus: Solubility. Format: physicochemical.
Data set [1] in a line: Pharmacokinetic study in mice (plasma, brain, CSF). The following applies: for AUC(0-inf) / AUC(0-t) / half-life: male, C57BL/6, mouse; for half-life: read-out: metabolic half-life (converted). Format: in vivo, mouse. The procedure:
PK profiling was outsourced and undertaken by Shanghai ChemPartner Co., Ltd. All animal experiments performed were conducted in compliance with the Institutional Animal Care and Use Committee (IACUC) and the Office of Laboratory Animal Welfare (OLAW) guidelines. Six- to eight-week-old C57BL/6 male mice purchased from Jihui Laboratory Animal Co. LTD were used in the study. […] The animals were restrained manually at the designated time points (0.083, 0.25, 0.5, 1, 2, 4, and 8 h); approximately, 110 μL of blood sample was collected via facial vein into K2EDTA tubes. Three mice per time point were used, resulting in a total of 21 mice for each administration route. The blood sample was put on ice and centrifuged at 2000 g for 5 min to obtain the plasma sample within 15 min. The plasma, brain, CSF samples were stored at approximately −70° C. until analysis. A 30 μL aliquot of plasma was added with 200 μL of internal standard (Glipozode, 40 ng/mL) in MeCN with 5% citri. The mixture was then vortexed for 1 min and then centrifuged for 10 min at 5800 rpm. The supernatant (100 μL) was transferred to a new plate. The solvent (1 μL) was injected to LC-MS/MS. LC-MS/MS instrument used: SCIEX LC-MS/MS-49 (Triple Quad 6500+). Data was analyzed by WinNonLin and Microsoft Excel.

In another data set the target is T1, VHL and LRRK2 (Homo sapiens, UniProt P40337+Q5S007).
T1 construct: host or cells: HEK293 (digitonin-permeabilized), with purified labelled VCB added
T1 sequence (Q5S007 whole entry, species assumed): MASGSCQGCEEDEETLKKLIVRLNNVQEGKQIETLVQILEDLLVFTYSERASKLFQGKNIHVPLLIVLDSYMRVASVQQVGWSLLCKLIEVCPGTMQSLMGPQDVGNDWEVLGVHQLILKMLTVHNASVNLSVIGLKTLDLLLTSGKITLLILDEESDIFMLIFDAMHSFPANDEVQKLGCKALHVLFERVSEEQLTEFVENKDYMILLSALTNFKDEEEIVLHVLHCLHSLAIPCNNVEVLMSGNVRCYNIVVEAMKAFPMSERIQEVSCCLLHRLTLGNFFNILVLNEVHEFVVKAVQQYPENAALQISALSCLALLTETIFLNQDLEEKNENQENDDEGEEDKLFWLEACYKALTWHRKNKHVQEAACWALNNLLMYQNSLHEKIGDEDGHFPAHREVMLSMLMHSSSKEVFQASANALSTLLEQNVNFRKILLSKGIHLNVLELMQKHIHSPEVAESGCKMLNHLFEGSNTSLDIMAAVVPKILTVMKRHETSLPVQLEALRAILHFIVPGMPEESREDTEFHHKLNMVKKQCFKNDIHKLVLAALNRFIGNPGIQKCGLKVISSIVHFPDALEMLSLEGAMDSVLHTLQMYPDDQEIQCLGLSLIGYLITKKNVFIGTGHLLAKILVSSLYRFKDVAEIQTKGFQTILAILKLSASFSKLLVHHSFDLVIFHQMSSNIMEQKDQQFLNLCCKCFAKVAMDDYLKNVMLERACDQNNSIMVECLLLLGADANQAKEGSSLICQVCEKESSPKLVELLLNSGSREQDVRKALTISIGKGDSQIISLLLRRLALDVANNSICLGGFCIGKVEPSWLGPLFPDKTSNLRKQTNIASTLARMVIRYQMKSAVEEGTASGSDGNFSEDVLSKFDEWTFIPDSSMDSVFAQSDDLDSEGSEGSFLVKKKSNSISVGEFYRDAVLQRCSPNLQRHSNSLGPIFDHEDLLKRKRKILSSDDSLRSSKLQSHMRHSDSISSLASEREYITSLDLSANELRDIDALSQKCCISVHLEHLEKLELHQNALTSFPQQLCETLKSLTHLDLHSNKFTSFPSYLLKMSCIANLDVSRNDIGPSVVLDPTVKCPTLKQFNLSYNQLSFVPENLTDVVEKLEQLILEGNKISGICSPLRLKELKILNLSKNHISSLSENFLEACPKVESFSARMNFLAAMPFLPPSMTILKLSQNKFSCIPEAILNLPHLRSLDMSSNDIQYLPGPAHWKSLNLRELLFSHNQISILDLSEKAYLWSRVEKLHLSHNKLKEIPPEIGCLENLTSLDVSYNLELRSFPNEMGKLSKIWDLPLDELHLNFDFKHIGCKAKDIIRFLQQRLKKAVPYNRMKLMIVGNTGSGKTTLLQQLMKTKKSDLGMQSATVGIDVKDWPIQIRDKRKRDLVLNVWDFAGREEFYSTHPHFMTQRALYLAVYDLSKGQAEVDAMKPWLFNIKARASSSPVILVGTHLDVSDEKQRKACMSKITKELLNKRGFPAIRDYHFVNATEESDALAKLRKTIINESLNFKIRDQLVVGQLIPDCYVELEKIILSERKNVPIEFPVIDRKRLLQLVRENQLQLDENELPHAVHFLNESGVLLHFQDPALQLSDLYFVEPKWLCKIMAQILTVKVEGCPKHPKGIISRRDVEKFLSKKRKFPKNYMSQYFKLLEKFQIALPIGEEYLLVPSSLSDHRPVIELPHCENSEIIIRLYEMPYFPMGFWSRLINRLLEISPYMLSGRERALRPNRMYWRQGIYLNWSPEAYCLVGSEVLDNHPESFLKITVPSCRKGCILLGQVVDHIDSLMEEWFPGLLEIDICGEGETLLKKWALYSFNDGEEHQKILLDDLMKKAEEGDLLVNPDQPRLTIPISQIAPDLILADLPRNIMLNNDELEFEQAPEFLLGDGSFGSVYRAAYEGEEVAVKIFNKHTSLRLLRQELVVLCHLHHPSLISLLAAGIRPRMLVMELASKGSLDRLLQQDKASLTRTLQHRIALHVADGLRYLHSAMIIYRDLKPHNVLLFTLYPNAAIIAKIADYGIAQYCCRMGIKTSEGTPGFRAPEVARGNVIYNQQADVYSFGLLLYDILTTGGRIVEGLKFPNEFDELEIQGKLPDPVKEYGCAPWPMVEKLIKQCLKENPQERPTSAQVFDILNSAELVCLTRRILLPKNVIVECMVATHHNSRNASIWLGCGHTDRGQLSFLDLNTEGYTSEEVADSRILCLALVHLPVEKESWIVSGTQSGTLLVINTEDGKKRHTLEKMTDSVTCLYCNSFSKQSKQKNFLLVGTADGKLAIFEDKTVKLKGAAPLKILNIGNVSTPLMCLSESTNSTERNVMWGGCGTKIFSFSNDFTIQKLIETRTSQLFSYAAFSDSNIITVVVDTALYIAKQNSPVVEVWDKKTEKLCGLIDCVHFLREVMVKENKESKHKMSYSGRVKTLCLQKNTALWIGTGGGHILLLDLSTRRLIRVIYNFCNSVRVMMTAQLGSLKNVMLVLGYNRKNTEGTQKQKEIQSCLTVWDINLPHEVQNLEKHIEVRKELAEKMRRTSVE
T1 sequence (P40337 54-213 limits assumed, species assumed): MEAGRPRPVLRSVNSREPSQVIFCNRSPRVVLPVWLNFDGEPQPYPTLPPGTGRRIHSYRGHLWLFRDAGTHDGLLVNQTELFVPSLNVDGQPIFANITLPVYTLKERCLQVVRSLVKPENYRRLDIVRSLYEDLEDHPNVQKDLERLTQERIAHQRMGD
T1 sequence (Q15369 17-112 partner limits assumed, species assumed): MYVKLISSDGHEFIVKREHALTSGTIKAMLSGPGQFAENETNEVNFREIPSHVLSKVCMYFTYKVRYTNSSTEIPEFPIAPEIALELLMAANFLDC
T1 sequence (Q15370 1-104 partner limits assumed, species assumed): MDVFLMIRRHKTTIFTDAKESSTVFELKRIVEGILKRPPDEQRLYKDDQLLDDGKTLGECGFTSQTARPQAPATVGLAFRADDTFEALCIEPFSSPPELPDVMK
Nature of the data set: NanoBRET ternary complex formation assay. Format: binding. The procedure: VCB was labeled with Bodipy 576/589 following protocol reported previously 76. Briefly, the VCB complex was mixed with Bodipy 576/589 NHS ester in a 20:1 molar ration and incubated at room temperature (protect from light) for 2 h in reaction buffer (0.1 M sodium phosphate, 75 mM KOAc, 2 mM DTT, pH 7.4). The reaction was quenched by diluting 10 times with reaction buffer and the unreacted dye was removed with a PD-10 MiniTrap desalting column (GE Healthcare) equilibrated with 100 mM BisTris pH 7.0, 100 mM NaCl, 1 mM DTT, pH 7. The eluted labeled protein solution was collected and concentrated with Pierce Concentrator, 3K MWCO (Thermo scientific).
Hek293 cells were transfected with LRRK2-NanoLuc vector (Promega, NV3401) for 24 h, harvested, and resuspended into OptiMEM media without phenol red (Life Technologies). The cells were then seeded into white 384-well plate (Corning3570) at a density of 6000 cells/well. […] Each well was added with NanoBRET NanoGlo Substrate (Promega, N2160) before performing the NanoBRET reading on PHERAstar (BMG LABTECH) plate reader equipped with a 450-nm bandpass filter (donor) and a 600-nm long pass filter (acceptor). […]
(In general: Bioluminescence resonance energy transfer reports proximity on the nanometre scale.)

Data set [2] in a line: Stability in mouse hepatocytes. Format: in vitro ADME. As to conditions: read-out: T1/2 in mouse hepatocytes.
Data set [3] in a line: Stability in mouse plasma. In kind it is in vitro ADME. As to conditions: read-out: T1/2 in mouse plasma.
Where [4] appears, read: CSF, intravenous 5 mg/Kg single dose.
[5] abbreviates: brain, gavage (oral) 30 mg/Kg single dose.
The mark [6] stands for this setting: brain, intraperitoneal 30 mg/Kg single dose.
Setting [7] is: brain, intravenous 5 mg/Kg single dose.
Setting [8] is: ip, brain, intraperitoneal 30 mg/Kg single dose.
[9] abbreviates: gavage (oral) 30 mg/Kg single dose.
The mark [10] stands for this setting: intraperitoneal 30 mg/Kg single dose.

Values after ≈ are worked out from the molar mass of the structure shown. “Also recorded” adds a separate entry of the source. Like-named read-outs stand apart in the source and are kept apart here.

Usually solubility stands for how much of the substance goes into solution per volume. Usually AUC(0-inf) stands for the area under the concentration-time curve extrapolated to infinity. The low end stands for low exposure, the high end for high exposure. One may read the AUC(0-t) as the area under the concentration-time curve up to a stated or last time point. A high value points to high exposure. Take `CNc1nc(Nc2ccc(C(=O)N3CCN(C[C@H]4CC[C@H](CSC(C)(C)[C@H](NC(=O)C5(F)CC5)C(=O)N5C[C@H](O)CC5C(=O)NCc5ccc(-c6scnc6C)cc5)CC4)CC3)cc2OC)ncc1Cl` (stereo partly drawn) [XL01126, (2S,4R)-1-((R)-3-((((1R,4R)-4-((4-(4-((5-chloro-4-(methylamino)pyrimidin-2-yl)amino)-3-methoxybenzoyl)piperazin-1-yl)methyl)cyclohexyl)methyl)thio)-2-(1-fluorocyclopropane-1-carboxamido)-3-methylbutanoyl)-4-hydroxy-N-(4-(4-methylthiazol-5-yl)benzyl)pyrrolidine-2-carboxamide]: the solubility in the data set “Solubility” (FeSSIF (fed state simulated intestinal fluid), fessif, Fed State Simulated Intestinal Fluid pH 5.8, read-out: Solubility in FeSSIF (pH 5.8)) was 26.1 µM (≈ 26.6 µg/mL); in the data set “Solubility” (aqueous buffer, PBS pH 7.4, read-out: Solubility in PBS (pH 7.4)) it was 0.55 µM (≈ 0.561 µg/mL). Moreover, the “maximum concentration in cerebrospinal fluid (CSF)” value in data set [1] (setting [4]) is recorded as 27.4 ng/mL. Moreover, the “time of maximum concentration in CSF” value in data set [1] (setting [4]) worked out at 0.083 h. Moreover, the entries for the “maximum concentration in brain tissue” value in data set [1] (setting [5]), in data set [1] (setting [6]) and in data set [1] (setting [7]) were 27 ng/mL, 218 ng/mL and 155 ng/mL, respectively. Further, the “time of maximum concentration in brain tissue” value was 2 h in data set [1] (setting [5]), 0.5 h in data set [1] (setting [6]) and 0.083 h in data set [1] (setting [7]). Besides, in data set [1] (intraperitoneal 30 mg/Kg and orally 30 mg/Kg), the “reaches CSF (in words)” value was “also reaches CSF”. Besides, the “blood brain barrier penetration (in words)” value in data set [1] (intravenous 5 mg/Kg, intraperitoneal 30 mg/Kg, oral 30 mg/Kg) is reported as “capable of penetrating blood brain barrier; also recorded: can penetrant blood brain barrier”. Moreover, the AUC(0-inf) in data set [1] (setting [4]) was 240 ng·h/mL; in data set [1] (setting [5]), 402 ng·h/mL; in data set [1] (setting [7]) it was 349 ng·h/mL; in data set [1] (setting [8]), 884 ng·h/mL. Further, the AUC(0-t) in data set [1] (setting [4]) is 107 ng·h/mL; in data set [1] (setting [5]), 142 ng·h/mL; in data set [1] (setting [7]) it was 258 ng·h/mL; in data set [1] (setting [8]), 752 ng·h/mL. Also, the half-life in data set [1] (setting [4]) is 8.59 h; in data set [1] (setting [5]), 10.7 h; in data set [1] (setting [7]) it was 3.67 h; in data set [1] (setting [8]), 2.79 h; in data set [2], 5.24 h; in data set [3], 1.8 h. Moreover, the maximum plasma concentration in data set [1] (setting [9]) worked out at 3620 ng/mL; in data set [1] (setting [10]) it was 7700 ng/mL. Also, the “time of maximum plasma concentration” value in data set [1] (setting [9]) was 2 h; in data set [1] (setting [10]) it was 0.25 h. Also, on VHL and LRRK2, the “ternary complex formation with VHL and LRRK2 (in words)” value is “highest ternary complex”.

On to `CNc1nc(Nc2ccc(C(=O)N3CCN(C[C@H]4CC[C@H](CSC(C)(C)[C@H](NC(=O)C5(F)CC5)C(=O)N5C[C@@H](O)CC5C(=O)NCc5ccc(-c6scnc6C)cc5)CC4)CC3)cc2OC)ncc1Cl` (stereo partly drawn) [Cis-XL01126, (2S,4S)-1-((R)-3-((((1r,4R)-4-((4-(4-((5-chloro-4-(methylamino)pyrimidin-2-yl)amino)-3-methoxybenzoyl)piperazin-1-yl)methyl)cyclohexyl)methyl)thio)-2-(1-fluorocyclopropane-1-carboxamido)-3-methylbutanoyl)-4-hydroxy-N-(4-(4-methylthiazol-5-yl)benzyl)pyrrolidine-2-carboxamide], for which the “ternary complex formation with VHL and LRRK2 (in words)” value at VHL and LRRK2 is “cannot form ternary complex”.
